Reference: ChEMBL document CHEMBL1201862, “PubChem BioAssay data set” (2004)
Calls of active or inactive are those of the source.

Experiments:
[1] = target: T1, Serine/threonine-protein phosphatase (Candida dubliniensis (strain CD36 / CBS 7987 / NCPF 3949 / NRRLY-17841) (Yeast), UniProt B9W6M3); assay: calcineurin pathway inhibitors in yeast reporter, dose response, S. cerevisiae, CDRE-lacZ, luminescence, secondary (AID 2388); type: functional, cell-based;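 further: yeast reporter cells carrying a calcineurin-responsive lacZ construct stimulated with calcium chloride; luminescent beta-galactosidase reporter signal in whole cells rather than isolated phosphatase activity; potency for inhibition where a drop in reporter signal means calcineurin blockade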
T1 sequence (B9W6M3 whole entry): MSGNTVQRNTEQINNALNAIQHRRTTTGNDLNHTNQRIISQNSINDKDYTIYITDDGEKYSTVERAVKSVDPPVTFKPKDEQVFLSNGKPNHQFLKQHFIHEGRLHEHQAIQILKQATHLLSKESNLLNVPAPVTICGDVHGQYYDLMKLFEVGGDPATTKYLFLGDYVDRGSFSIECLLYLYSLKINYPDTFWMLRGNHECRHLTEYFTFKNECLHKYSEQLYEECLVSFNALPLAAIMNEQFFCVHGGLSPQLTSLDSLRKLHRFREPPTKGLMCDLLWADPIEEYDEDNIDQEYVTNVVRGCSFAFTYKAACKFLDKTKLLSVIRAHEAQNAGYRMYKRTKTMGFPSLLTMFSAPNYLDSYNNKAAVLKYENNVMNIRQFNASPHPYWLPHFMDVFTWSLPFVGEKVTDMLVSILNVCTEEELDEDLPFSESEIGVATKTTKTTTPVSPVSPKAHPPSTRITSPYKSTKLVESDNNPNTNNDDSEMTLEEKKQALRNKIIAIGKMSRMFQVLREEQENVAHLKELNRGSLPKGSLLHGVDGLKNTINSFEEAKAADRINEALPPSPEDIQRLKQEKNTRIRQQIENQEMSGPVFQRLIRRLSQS

[2] = C. albicans growth with fluconazole, confirmation, fluorescence, retest (AID 2467); type: functional, cell-based
[3] = Luminescence Cell-Based Dose Response HTS to Identify Inhibitors of 5'UTR Stem-Loop Driven Prion Protein mRNA Translation in H4 Neuroglioblastoma Cells. [Related pubchem assays: 1827 (Project Summary), 1813 (Primary HTS)]; type: functional
[4] = inhibitors of intracellular T. cruzi replication, confirmation, NIH3T3 host cells, beta-gal luminescence (AID 2044); type: functional, cell-based;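 further: intracellular parasites grown in NIH/3T3 mouse fibroblasts as host cells; luminescent beta-galactosidase reporter signal from transgenic T. cruzi replicating inside host cells; inhibitors lower the luminescence signal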
Caspase-3 = target: T2, Caspase-3 (Homo sapiens, UniProt P42574); type: functional;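 further: Dose-response selectivity test against caspase-3 for candidate inhibitors of sentrin-specific proteases (SENPs)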
T2 sequence (P42574 whole entry): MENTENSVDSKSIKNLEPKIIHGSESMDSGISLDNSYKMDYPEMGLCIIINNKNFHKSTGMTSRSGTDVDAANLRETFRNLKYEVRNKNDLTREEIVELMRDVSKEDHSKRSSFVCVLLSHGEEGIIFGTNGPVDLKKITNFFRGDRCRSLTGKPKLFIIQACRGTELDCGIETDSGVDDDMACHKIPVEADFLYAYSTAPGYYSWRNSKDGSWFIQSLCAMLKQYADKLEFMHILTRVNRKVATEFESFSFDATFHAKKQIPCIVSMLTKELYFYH

[5] = target: T3, Sentrin-specific protease 8 (Homo sapiens, UniProt Q96LD8); type: functional;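 further: luminescence read-out of SENP8 inhibition, dose-response confirmation following an ultra-high-throughput screen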
T3 sequence (Q96LD8 whole entry): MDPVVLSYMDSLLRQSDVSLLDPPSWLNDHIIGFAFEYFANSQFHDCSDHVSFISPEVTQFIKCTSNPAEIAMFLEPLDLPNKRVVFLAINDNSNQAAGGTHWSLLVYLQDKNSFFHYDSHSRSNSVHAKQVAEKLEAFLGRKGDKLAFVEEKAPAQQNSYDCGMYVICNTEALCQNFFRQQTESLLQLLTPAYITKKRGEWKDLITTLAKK

[6] = target: Protein kinase C theta type (Homo sapiens, UniProt Q04759); assay: Navigating the Kinome. Panel member name: PRKCQ; type: functional
[7] = target: Macrophage-stimulating protein receptor (Homo sapiens, UniProt Q04912); assay: Navigating the Kinome. Panel member name: MST1R; type: functional
Sequence of Macrophage-stimulating protein receptor (Q04912 25-304 limits assumed): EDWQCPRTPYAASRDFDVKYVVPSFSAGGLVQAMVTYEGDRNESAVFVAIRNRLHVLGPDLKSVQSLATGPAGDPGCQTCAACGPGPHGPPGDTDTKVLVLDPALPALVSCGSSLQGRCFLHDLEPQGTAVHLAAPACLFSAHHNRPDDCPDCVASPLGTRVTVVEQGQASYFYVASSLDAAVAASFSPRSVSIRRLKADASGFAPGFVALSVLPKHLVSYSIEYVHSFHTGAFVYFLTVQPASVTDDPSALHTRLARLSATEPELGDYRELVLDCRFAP
Sequence of Macrophage-stimulating protein receptor (Q04912 310-1400 limits assumed): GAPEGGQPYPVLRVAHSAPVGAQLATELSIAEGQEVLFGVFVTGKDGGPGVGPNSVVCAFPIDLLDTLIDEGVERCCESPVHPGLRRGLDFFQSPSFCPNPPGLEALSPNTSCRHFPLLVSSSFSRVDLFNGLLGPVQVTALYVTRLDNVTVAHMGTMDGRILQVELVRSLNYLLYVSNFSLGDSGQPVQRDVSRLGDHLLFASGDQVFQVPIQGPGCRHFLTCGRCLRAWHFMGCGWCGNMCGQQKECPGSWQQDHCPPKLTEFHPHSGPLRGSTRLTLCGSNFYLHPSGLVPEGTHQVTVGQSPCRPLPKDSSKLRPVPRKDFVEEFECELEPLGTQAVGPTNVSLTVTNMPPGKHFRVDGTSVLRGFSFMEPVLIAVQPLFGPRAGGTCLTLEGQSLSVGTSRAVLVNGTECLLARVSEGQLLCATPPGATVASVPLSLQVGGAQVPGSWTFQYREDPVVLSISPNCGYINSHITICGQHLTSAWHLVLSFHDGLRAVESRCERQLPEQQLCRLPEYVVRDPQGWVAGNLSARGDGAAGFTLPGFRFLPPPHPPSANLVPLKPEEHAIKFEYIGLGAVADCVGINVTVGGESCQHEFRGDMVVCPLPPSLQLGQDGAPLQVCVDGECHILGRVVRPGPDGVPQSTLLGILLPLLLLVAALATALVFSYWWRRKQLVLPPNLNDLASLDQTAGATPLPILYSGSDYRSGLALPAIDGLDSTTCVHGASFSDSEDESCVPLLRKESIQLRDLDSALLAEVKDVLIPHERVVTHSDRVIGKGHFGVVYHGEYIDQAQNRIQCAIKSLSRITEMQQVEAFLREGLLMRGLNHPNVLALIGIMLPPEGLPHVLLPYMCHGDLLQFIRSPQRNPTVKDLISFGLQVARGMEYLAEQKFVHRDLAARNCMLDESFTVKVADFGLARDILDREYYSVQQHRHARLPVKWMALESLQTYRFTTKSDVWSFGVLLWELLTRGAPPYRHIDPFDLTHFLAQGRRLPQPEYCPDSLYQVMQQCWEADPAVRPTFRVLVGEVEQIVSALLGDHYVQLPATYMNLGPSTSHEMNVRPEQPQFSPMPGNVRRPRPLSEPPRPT

[8] = target: Serine/threonine-protein kinase pim-1 (Homo sapiens, UniProt P11309); type: functional
[9] = target: Ribosomal protein S6 kinase alpha-3 (Homo sapiens, UniProt P51812); type: functional;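 further: measured within a kinome-wide profiling panel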
Sequence of Ribosomal protein S6 kinase alpha-3 (P51812 whole entry): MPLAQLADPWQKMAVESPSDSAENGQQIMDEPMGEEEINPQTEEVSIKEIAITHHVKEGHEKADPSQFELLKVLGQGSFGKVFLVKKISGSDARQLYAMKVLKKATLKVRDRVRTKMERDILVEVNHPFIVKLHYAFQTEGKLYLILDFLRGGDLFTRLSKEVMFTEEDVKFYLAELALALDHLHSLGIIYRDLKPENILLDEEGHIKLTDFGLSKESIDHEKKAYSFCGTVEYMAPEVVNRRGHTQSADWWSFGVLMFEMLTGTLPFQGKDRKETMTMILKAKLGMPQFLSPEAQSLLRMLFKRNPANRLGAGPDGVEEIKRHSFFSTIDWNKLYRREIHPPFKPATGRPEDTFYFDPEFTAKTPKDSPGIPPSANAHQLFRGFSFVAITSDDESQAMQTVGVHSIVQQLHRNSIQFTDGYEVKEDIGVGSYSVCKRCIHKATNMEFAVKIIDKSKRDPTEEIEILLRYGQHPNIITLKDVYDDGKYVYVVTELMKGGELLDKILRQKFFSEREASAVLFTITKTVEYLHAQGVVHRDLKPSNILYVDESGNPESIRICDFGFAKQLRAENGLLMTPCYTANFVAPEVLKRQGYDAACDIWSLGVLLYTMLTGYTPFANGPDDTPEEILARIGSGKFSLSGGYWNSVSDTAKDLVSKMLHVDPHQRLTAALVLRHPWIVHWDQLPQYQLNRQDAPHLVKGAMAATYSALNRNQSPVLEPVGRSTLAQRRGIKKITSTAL

[10] = target: Death-associated protein kinase 3 (Homo sapiens, UniProt O43293); type: functional;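 further: measured as one member of a kinome-wide profiling panel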
Sequence of Death-associated protein kinase 3 (O43293 whole entry): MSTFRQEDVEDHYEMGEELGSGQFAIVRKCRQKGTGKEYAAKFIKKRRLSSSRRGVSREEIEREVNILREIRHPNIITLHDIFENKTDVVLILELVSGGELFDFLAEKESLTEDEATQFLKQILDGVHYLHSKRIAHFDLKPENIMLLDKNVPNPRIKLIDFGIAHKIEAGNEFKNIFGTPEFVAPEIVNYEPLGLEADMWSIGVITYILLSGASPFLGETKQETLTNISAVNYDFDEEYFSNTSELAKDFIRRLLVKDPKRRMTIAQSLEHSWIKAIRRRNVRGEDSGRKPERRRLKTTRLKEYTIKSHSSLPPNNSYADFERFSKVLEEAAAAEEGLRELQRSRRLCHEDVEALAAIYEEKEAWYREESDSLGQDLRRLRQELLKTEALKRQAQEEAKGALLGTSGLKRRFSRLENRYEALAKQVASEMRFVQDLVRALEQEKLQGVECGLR

[11] = target: Cyclin-dependent kinase 5 (Homo sapiens, UniProt Q00535); type: functional;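 further: CDK5 measured as one member of a kinase profiling panel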
[12] = target: Platelet-derived growth factor receptor beta (Homo sapiens, UniProt P09619); type: functional;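 further: value comes from a kinome panel, with PDGFRB tested as one panel member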
Sequence of Platelet-derived growth factor receptor beta (P09619 whole entry): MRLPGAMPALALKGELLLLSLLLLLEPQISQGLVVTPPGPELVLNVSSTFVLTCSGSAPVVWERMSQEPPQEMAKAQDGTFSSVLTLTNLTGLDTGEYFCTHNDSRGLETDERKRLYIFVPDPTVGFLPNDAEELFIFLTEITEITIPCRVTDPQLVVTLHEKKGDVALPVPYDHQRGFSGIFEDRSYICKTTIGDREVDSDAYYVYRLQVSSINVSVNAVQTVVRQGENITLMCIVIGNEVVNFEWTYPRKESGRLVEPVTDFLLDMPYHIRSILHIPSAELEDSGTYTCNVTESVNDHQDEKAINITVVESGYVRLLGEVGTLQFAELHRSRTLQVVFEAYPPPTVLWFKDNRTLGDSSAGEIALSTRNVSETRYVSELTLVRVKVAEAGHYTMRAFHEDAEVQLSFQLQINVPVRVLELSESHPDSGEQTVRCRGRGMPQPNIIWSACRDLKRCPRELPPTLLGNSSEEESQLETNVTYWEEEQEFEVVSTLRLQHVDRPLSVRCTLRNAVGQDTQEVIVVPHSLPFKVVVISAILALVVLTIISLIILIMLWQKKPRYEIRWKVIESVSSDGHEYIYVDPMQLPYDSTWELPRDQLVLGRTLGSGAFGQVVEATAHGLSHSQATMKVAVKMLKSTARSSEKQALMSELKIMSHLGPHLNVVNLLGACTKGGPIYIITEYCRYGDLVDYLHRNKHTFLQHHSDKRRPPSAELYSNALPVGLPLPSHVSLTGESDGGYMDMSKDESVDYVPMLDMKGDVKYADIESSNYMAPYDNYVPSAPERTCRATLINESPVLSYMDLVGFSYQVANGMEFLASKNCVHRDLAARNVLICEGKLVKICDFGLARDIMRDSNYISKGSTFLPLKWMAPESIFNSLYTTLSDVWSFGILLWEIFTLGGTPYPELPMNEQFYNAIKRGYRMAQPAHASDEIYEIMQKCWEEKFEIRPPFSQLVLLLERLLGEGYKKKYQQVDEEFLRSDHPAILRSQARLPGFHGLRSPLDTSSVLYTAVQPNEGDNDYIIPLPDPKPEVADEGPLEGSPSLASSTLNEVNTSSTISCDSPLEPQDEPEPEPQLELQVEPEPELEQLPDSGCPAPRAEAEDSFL

[13] = target: Cyclin-dependent kinase 9 (Homo sapiens, UniProt P50750); type: functional;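 further: value from the CDK9 entry of a kinome-spanning kinase panel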
[14] = target: Dual specificity mitogen-activated protein kinase kinase 2 (Homo sapiens, UniProt P36507); assay: Navigating the Kinome. Panel member name: MAP2K2; type: functional
[15] = target: cAMP-dependent protein kinase catalytic subunit alpha (Homo sapiens, UniProt P17612); type: functional
LIM domain kinase 1 = LIM domain kinase 1 (Homo sapiens, UniProt P53667); assay: Navigating the Kinome. Panel member name: LIMK1; type: functional
[16] = target: Tyrosine-protein kinase ABL1 (Homo sapiens, UniProt P00519); type: functional
[17] = target: Dual specificity protein kinase CLK2 (Homo sapiens, UniProt P49760); type: functional
[18] = target: Glycogen synthase kinase-3 beta (Homo sapiens, UniProt P49841); type: functional;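 further: value comes from a broad kinome profiling panel, with GSK3B as the panel member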
[19] = target: Macrophage colony-stimulating factor 1 receptor (Homo sapiens, UniProt P07333); type: functional;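 further: value comes from the Navigating the Kinome screening panel, CSF1R member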
Sequence of Macrophage colony-stimulating factor 1 receptor (P07333 whole entry): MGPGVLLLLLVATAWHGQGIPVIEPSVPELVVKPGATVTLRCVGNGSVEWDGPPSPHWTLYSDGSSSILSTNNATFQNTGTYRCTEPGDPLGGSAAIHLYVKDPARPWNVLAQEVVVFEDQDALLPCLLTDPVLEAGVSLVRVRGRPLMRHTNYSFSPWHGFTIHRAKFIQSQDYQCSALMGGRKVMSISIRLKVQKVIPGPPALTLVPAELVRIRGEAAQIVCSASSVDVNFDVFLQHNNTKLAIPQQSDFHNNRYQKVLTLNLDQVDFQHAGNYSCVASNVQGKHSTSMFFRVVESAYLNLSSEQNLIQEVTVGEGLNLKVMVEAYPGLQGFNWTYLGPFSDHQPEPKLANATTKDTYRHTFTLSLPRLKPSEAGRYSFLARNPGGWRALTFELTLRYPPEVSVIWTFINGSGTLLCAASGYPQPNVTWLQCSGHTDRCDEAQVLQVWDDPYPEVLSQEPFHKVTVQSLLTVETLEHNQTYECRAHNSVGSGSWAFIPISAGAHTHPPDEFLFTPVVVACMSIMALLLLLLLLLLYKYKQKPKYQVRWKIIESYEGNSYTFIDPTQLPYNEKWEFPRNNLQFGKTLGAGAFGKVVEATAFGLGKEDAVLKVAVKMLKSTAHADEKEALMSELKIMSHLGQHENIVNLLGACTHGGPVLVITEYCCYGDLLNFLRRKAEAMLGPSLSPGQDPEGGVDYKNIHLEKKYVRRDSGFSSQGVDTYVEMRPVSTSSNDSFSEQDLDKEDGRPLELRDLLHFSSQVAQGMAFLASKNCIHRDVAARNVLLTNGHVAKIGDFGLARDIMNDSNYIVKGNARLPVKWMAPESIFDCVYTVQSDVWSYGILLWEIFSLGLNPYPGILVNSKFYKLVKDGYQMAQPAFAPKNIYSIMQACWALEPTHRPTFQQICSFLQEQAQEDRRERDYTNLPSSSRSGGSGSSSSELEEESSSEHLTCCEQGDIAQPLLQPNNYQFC

[20] = target: ALK tyrosine kinase receptor (Homo sapiens, UniProt Q9UM73); type: functional;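 further: ALK tested as one member of a kinase panel screen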
[21] = target: Dual specificity tyrosine-phosphorylation-regulated kinase 1A (Homo sapiens, UniProt Q13627); type: functional;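 further: measured against DYRK1A as one member of a broad kinome profiling panel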
[22] = target: Dual specificity mitogen-activated protein kinase kinase 1 (Homo sapiens, UniProt Q02750); assay: Navigating the Kinome. Panel member name: MAP2K1; type: functional
Sequence of Dual specificity mitogen-activated protein kinase kinase 1 (Q02750 whole entry): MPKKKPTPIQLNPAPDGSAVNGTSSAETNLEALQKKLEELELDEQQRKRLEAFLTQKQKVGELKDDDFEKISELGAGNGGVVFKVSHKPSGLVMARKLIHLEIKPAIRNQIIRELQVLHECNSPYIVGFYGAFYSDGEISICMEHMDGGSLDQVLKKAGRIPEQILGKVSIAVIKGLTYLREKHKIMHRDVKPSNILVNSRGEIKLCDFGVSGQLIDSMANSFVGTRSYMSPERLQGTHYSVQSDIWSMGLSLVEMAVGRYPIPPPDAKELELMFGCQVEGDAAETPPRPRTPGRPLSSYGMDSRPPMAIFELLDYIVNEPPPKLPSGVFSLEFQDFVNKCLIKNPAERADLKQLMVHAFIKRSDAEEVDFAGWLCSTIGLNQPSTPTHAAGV

[23] = target: Mitogen-activated protein kinase kinase kinase kinase 2 (Homo sapiens, UniProt Q12851); type: functional;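 further: measured as one member of a kinome-wide kinase panel, with MAP4K2 as the panel entry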
[24] = target: Mitogen-activated protein kinase 14 (Homo sapiens, UniProt Q16539); type: functional;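 further: part of a kinome-wide panel, MAPK14 entry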
[25] = target: Tyrosine-protein kinase JAK3 (Homo sapiens, UniProt P52333); type: functional
[26] = target: Cyclin-dependent kinase 7 (Homo sapiens, UniProt P50613); type: functional;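 further: value comes from a kinome-wide kinase profiling panel in which CDK7 is one member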

## CN1CCN(C(c2ccc(C(F)(F)F)cc2)c2cc(Cl)c3cccnc3c2O)CC1 (stereo not drawn)
[1]
  EC50: > 180 µM (inactive)
[2]
  EC50: 0.666 µM (active)
[3]
  EC50: 9.3 µM (active)
[4]
  EC50: 1.32 µM (active)

## NC(=O)c1c(NC(=O)c2cc3ccccc3o2)sc2c1CCC2
Caspase-3
  IC50: 15.1 µM (active)
[5]
  IC50: 12.4 µM (active)

## O=C(NC(CCO)c1ccccc1)c1ccc(-c2ccncc2)cc1 (stereo not drawn)
[6]
  Ki: 1.58 µM (active)
[7]
  Ki: > 3.98 µM (inactive)
[8]
  Ki: > 6.31 µM (inactive)
[9]
  Ki: > 3.98 µM (inactive)
[10]
  Ki: > 5.01 µM (inactive)
[11]
  Ki: > 3.16 µM (inactive)
[12]
  Ki: > 2 µM (inactive)
[13]
  Ki: > 1.58 µM (inactive)
[14]
  Ki: > 3.98 µM (inactive)
[15]
  Ki: 0.0316 µM (active)
LIM domain kinase 1
  Ki: > 3.16 µM (inactive)
[16]
  Ki: > 3.98 µM (inactive)
[17]
  Ki: > 3.98 µM (inactive)
[18]
  Ki: 1.26 µM (active)
[19]
  Ki: > 2.51 µM (inactive)
[20]
  Ki: > 6.31 µM (inactive)
[21]
  Ki: > 2 µM (inactive)
[22]
  Ki: > 3.16 µM (inactive)
[23]
  Ki: > 2.51 µM (inactive)
[24]
  Ki: > 3.98 µM (inactive)
[25]
  Ki: > 5.01 µM (inactive)
[26]
  Ki: > 3.98 µM (inactive)
